According to ChEMBL document CHEMBL1201862, “PubChem BioAssay data set” (2004):
Active and inactive are the calls of the source.

Assays:
[1] = target: T1, Sentrin-specific protease 7 (Homo sapiens, UniProt Q9BQF6); type: functional;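 note: Luminescence-based dose-response confirmation of ultra-high-throughput screening hits, measuring inhibition of SENP7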
T1 sequence (Q9BQF6 whole entry): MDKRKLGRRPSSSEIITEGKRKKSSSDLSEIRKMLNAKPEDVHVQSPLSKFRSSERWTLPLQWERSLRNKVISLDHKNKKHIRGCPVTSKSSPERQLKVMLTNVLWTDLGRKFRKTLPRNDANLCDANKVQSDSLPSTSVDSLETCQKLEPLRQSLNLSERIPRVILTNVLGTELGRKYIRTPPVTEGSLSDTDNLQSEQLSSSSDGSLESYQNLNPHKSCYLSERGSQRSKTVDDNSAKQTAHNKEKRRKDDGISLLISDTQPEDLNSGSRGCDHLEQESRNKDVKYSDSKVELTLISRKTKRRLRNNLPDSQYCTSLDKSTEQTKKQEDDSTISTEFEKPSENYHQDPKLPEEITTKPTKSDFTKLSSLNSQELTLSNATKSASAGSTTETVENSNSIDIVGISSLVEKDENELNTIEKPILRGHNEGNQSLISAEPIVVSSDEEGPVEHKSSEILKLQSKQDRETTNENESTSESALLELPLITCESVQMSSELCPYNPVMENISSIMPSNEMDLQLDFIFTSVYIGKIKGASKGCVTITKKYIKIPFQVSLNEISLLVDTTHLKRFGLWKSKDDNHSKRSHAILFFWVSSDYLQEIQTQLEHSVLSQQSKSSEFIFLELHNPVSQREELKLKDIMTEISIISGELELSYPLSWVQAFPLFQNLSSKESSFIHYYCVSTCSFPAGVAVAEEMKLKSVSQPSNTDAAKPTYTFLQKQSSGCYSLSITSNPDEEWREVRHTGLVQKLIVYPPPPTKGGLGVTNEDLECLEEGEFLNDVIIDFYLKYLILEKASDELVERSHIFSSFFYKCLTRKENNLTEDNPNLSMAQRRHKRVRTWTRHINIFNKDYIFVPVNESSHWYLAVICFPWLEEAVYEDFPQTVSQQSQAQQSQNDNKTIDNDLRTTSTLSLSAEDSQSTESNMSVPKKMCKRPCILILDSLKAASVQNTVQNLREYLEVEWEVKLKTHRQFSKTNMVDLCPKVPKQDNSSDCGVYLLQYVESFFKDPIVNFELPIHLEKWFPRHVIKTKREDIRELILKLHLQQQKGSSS

[2] = target: T2, Sentrin-specific protease 6 (Homo sapiens, UniProt Q9GZR1); type: functional;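 note: Luminescence-based dose-response confirmatory assay of SENP6 inhibition, following up an ultra-high-throughput screen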
T2 sequence (Q9GZR1 whole entry): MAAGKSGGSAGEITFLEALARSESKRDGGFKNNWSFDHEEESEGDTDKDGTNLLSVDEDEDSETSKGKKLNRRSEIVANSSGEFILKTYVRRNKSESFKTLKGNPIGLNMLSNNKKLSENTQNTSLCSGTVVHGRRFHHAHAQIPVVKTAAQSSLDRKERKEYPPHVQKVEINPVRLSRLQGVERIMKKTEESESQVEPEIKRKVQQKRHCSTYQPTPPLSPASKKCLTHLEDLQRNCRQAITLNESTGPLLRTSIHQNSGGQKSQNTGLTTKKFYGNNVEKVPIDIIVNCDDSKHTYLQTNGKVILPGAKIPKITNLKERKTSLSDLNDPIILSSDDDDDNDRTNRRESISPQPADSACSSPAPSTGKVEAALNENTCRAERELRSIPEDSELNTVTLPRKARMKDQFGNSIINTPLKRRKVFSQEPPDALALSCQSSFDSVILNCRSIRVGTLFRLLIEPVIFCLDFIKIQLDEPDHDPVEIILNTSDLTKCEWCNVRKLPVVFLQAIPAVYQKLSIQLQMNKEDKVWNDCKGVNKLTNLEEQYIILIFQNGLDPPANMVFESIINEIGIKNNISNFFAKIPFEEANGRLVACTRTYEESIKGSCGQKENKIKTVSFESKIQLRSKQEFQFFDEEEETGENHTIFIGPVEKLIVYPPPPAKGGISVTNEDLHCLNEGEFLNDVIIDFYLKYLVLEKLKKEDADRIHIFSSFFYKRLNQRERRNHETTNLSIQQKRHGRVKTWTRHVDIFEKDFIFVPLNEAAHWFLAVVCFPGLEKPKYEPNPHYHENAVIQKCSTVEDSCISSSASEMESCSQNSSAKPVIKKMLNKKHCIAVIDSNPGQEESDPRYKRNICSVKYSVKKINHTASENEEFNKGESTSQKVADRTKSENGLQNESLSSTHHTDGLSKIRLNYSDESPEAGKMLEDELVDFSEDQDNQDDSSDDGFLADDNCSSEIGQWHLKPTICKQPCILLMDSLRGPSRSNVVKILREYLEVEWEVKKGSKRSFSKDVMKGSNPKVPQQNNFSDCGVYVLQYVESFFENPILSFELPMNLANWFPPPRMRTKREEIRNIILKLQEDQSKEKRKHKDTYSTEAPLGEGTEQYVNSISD

[3] = target: T3, Sentrin-specific protease 8 (Homo sapiens, UniProt Q96LD8); type: functional;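 note: luminescence read-out of SENP8 inhibition, dose-response confirmation following an ultra-high-throughput screen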
T3 sequence (Q96LD8 whole entry): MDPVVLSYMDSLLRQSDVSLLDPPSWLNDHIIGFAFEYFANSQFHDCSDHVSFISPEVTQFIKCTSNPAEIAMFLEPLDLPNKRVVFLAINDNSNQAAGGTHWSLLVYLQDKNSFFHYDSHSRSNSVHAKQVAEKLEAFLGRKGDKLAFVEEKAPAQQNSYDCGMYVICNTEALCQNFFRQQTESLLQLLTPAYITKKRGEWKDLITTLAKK

Caspase-3 = target: T4, Caspase-3 (Homo sapiens, UniProt P42574); type: functional;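 note: Dose-response selectivity test against caspase-3 for candidate inhibitors of sentrin-specific proteases (SENPs)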
T4 sequence (P42574 whole entry): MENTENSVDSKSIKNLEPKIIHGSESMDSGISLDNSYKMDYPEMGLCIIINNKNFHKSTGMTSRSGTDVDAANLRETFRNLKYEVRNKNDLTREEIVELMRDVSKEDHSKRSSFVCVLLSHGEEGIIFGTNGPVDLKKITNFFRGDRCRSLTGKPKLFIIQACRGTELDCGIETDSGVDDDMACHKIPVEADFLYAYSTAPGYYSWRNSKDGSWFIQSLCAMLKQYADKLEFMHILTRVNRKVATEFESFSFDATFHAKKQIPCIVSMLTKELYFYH

[4] = target: SWI/SNF-related matrix-associated actin-dependent regulator of chromatin subfamily A member 2 (Homo sapiens, UniProt P51531); test: Luminescence-based cell-based high throughput dose response assay to identify activators of the function of SWI/SNF related, matrix associated, actin dependent regulator of chromatin, subfamily a, member 2 (SMARCA2, BRM).; type: functional
Chain of SWI/SNF-related matrix-associated actin-dependent regulator of chromatin subfamily A member 2 (P51531 whole entry): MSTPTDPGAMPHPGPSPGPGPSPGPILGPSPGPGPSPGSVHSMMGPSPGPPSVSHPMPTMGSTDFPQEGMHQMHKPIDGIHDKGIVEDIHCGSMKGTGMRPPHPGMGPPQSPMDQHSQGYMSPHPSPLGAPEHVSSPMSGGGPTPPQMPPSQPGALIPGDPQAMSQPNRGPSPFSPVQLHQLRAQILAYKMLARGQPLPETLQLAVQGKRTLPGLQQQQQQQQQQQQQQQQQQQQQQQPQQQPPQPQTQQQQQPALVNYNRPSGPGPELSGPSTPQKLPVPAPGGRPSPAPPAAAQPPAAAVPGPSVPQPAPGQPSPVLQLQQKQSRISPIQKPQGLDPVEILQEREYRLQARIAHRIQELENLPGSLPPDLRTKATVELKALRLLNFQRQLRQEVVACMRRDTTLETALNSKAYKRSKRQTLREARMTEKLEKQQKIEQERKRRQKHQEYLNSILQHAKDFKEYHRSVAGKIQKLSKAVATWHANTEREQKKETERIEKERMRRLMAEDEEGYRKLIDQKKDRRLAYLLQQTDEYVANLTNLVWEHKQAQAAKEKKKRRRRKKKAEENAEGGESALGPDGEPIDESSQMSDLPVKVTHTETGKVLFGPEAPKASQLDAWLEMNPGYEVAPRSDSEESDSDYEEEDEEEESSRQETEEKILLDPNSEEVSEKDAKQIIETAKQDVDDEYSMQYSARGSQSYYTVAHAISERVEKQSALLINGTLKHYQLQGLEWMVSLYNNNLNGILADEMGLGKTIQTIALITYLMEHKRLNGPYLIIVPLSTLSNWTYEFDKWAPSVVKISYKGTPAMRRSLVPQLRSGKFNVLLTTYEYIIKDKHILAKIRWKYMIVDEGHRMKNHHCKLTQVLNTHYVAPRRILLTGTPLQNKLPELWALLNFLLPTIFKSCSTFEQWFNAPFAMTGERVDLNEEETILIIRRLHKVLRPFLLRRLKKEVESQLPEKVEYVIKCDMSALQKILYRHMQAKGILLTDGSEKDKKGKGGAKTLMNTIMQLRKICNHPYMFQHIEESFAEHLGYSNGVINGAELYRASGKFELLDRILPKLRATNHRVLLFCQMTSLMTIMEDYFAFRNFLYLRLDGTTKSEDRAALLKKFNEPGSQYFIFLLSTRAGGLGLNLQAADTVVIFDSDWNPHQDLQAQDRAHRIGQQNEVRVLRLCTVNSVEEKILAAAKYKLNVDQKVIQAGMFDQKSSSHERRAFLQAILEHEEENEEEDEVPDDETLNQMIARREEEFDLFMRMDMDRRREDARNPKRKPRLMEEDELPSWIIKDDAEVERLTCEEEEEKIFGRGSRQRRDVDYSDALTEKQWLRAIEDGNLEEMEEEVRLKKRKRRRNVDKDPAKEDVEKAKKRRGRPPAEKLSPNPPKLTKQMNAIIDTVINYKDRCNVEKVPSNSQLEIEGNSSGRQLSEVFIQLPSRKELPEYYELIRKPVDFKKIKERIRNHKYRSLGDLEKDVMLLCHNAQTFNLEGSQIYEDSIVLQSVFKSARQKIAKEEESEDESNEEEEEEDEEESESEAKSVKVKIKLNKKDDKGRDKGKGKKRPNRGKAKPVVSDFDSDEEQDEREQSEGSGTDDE

[5] = Counterscreen for activators of the function of SWI/SNF related, matrix associated, actin dependent regulator of chromatin, subfamily a, member 2 (SMARCA2, BRM): Luminescence-based cell-based high throughput dose response assay to identify non-selective compounds using the VP16 reporter assay.; type: functional
Streptococcus = test: Group A Streptococcus viability loss, dose response, counter-screen for streptokinase expression inhibitor project, luminescence, BacTiterGlo (AID 1915); type: functional, organism-based;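 note: potency for reduction of bacterial viability or growth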
Streptokinase A = target: T5, Streptokinase A (Streptococcus pyogenes serotype M1, UniProt P10520); test: S. pyogenes streptokinase expression inhibitors, potency, dose response, plasminogen activation absorbance, OD405 (AID 1914); type: functional, Streptococcus pyogenes M1 GAS;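 note: secreted streptokinase activity via plasminogen activation per viability signal from cell pellet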
T5 sequence (P10520 whole entry): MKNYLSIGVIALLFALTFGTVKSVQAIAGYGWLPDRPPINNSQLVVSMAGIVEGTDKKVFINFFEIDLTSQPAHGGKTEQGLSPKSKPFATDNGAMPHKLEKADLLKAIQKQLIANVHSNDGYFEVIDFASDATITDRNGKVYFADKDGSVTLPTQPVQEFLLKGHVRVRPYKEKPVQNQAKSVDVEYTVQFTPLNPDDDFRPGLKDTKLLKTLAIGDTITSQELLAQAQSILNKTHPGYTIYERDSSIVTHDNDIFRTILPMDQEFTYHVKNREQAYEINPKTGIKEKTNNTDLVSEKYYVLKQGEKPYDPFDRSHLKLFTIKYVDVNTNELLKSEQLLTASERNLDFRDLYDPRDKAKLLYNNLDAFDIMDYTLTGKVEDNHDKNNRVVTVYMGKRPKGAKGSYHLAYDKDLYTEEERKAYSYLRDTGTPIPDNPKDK

[6] = tested on: Streptococcus sp. 'group A'; test: growth inhibition of control SK(-) GAS strain, dose response, counter-screen for streptokinase expression inhibitor project, luminescence, kanamycin, BacTiterGlo, confirmation (AID 1900); type: functional, organism-based
[7] = target: T6, DNA repair and recombination protein RAD54-like (Homo sapiens, UniProt Q92698); test: inhibitors of human RAD54 branch migration, confirmation, biochemical, fluorescence, cherry-picked samples, dose series (AID 651657); type: functional
T6 sequence (Q92698 whole entry): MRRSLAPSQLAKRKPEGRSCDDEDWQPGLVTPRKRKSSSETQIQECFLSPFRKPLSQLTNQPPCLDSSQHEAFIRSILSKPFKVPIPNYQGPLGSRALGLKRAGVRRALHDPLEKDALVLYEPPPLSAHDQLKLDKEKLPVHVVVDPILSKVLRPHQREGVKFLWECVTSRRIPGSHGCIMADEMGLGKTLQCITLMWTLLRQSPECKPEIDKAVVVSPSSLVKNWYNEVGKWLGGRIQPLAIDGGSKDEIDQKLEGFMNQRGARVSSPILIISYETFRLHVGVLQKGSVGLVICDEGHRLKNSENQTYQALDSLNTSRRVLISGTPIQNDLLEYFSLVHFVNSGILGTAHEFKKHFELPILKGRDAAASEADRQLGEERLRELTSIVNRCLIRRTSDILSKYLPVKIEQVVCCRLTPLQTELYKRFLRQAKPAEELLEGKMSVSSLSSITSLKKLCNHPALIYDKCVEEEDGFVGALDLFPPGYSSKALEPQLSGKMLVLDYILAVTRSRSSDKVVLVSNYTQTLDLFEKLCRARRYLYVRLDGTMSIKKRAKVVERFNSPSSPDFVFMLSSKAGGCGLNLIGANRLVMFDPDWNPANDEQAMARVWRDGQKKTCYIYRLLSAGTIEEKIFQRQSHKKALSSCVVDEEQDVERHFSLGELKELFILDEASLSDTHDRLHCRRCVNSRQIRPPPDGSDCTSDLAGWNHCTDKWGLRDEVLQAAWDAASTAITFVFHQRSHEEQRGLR

SN12K1 = test: cells; type: functional; details: Homo sapiens
P388 = test: cells; type: functional; details: Mus musculus
P388/ADR = test: cells; type: functional; details: Mus musculus

Compound | IC50 [1] | IC50 [2] | IC50 [3] | IC50 (Caspase-3) | further results
Cc1c(/C=C/C(=O)c2ccccc2O)cnn1C | 4.84 µM (active) | 14.2 µM (active) | 25.2 µM (active) | 15.3 µM (active) | 
Cc1c(NC(=O)c2ccccc2N)cccc1C(=O)O | 2.73 µM (active) | 9.43 µM (active) | 11.4 µM (active) | 38.1 µM (active) | 
Cc1n[nH]c(SCC(=O)N2CCc3ccccc32)n1 |  |  |  |  | EC50 [4]: > 91 µM (inactive); EC50 [5]: > 91 µM (inactive)
Cc1cccc(Nc2nc(-c3ccc(F)c(C)c3)cs2)n1 | 5.75 µM (active) | 24 µM (active) | 41.5 µM (active) | 41.4 µM (active) | EC50 (Streptococcus): 26.7 µM (active); EC50 (Streptokinase A): > 50 µM (not active); EC50 [6]: 8.77 µM (active)
O=C(c1cccs1)c1coc2ccc(O)cc12 | 7.28 µM (active) | 10.6 µM (active) | > 100 µM (inactive) | 13.7 µM (active) | 
CCOC(=O)c1cnc2ccc(C)cc2c1NCCN1CCOCC1 |  |  |  |  | AC50 [7]: 98.8 µM (active)
OC(CBr)C(O)C(O)C(O)CBr (stereo not given) |  |  |  |  | GI50 (SN12K1): > 100 µM (inactive); GI50 (P388): 3.53 µM (inactive); GI50 (P388/ADR): 5.89 µM (inactive)
